According to patent publication US12139499B2, “Heteroaryl compounds for treating Huntington's disease” (PTC THERAPEUTICS, INC., priority 2018, dated 2024):

Tested on: Endogenous Huntingtin Protein
Test: Endogenous Huntingtin Protein Assay (ELISA-based MSD electrochemiluminescence)
Assay type: cell-based
Details: Table 1
In short: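 Sandwich MSD electrochemiluminescence immunoassay. Capture used MW1 (expanded polyglutamine) or MAB2166 antibody coated at 1 μg/mL overnight at 4 °C. Samples were bound overnight at 4 °C, then a rabbit monoclonal detection antibody and SULFO-TAG anti-rabbit, each at 0.25 μg/mL, were applied for 1 h at room temperature.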

Row | SMILES | IC50
1 | Cc1cn2nc(-c3cc(F)c4nc(N(C)C5CNC5)sc4c3)cc(C)c2n1 [Compound 248, N-(azetidin-3-yl)-6-(2,8-dimethylimidazo[1,2-b]pyridazin-6-yl)-4-fluoro-N-methyl-1,3-benzothiazol-2-amine] | 100 to 500 nM
2 | Cc1cc2nc(-c3cc(F)c4nc(C5CCNCC5)sc4c3)ccn2n1 [Compound 249, 5-[4-fluoro-2-(piperidin-4-yl)-1,3-benzothiazol-6-yl]-2-methylpyrazolo[1,5-a]pyrimidine] | ≤ 100 nM
3 | Cc1cc2nc(-c3cc(F)c4nc(N(C)C5CCNCC5)sc4c3)ccn2n1 [Compound 250, 4-fluoro-N-methyl-6-(2-methylpyrazolo[1,5-a]pyrimidin-5-yl)-N-(piperidin-4-yl)-1,3-benzothiazol-2-amine] | 100 to 500 nM
4 | Cc1cn2cc(-c3cc4sc(N(C)C5CC6CCCC(C5)N6)nc4cn3)cc(C#N)c2n1 (centres unmarked) [Compound 251, 6-{2-[9-azabicyclo[3.3.1]non-3-yl(methyl)amino][1,3]thiazolo[4,5-c]pyridin-6-yl}-2-methylimidazo[1,2-a]pyridine-8-carbonitrile] | ≤ 100 nM
5 | CN(c1nc2cnc(-c3cc(C#N)c4nn(C)cc4c3)cc2s1)C1CC2CCCC(C1)N2 (centres unmarked) [Compound 252, 5-{2-[9-azabicyclo[3.3.1]non-3-yl(methyl)amino][1,3]thiazolo[4,5-c]pyridin-6-yl}-2-methyl-2H-indazole-7-carbonitrile] | ≤ 100 nM
6 | CN(c1nc2cnc(-c3cc(F)c4nn(C)cc4c3)cc2s1)C1CC2CCCC(C1)N2 (centres unmarked) [Compound 253, N-(9-azabicyclo[3.3.1]non-3-yl)-6-(7-fluoro-2-methyl-2H-indazol-5-yl)-N-methyl[1,3]thiazolo[4,5-c]pyridin-2-amine] | ≤ 100 nM
7 | Cc1cn2cc(-c3ncc4nc(N(C)C5CC6(C)CC[C@](C)(C5)N6)sc4n3)cc(C#N)c2n1 (stereo partly drawn) [Compound 255, 6-(2-{[(1R)-1,5-dimethyl-8-azabicyclo[3.2.1]oct-3-yl](methyl)amino}[1,3]thiazolo[5,4-d]pyrimidin-5-yl)-2-methylimidazo[1,2-a]pyridine-8-carbonitrile] | ≤ 100 nM
8 | Cc1cn2cc(-c3ncc4nc(N(C)C5C[C@H]6CCC[C@@H](C5)N6)sc4n3)cc(C#N)c2n1 (stereo partly drawn) [Compound 256, 6-{2-[(1R,5S)-9-azabicyclo[3.3.1]non-3-yl(methyl)amino][1,3]thiazolo[5,4-d]pyrimidin-5-yl}-2-methylimidazo[1,2-a]pyridine-8-carbonitrile] | ≤ 100 nM
9 | Cc1cn2cc(-c3ncc4nc(N(C)C5C[C@H]6CCC[C@@H](C5)N6)sc4n3)cc(F)c2n1 (stereo partly drawn) [Compound 257, N-[(1R,5S)-9-azabicyclo[3.3.1]non-3-yl]-5-(8-fluoro-2-methylimidazo[1,2-a]pyridin-6-yl)-N-methyl[1,3]thiazolo[5,4-d]pyrimidin-2-amine] | ≤ 100 nM
10 | Cc1cn2nc(-c3cc(F)c4nc(N(C)[C@H]5CCN[C@@H](C)C5)sc4c3)ccc2n1 [Compound 258, 4-fluoro-N-methyl-6-(2-methylimidazo[1,2-b]pyridazin-6-yl)-N-[(2S,4S)-2-methylpiperidin-4-yl]-1,3-benzothiazol-2-amine] | ≤ 100 nM
11 | Cc1cn2nc(-c3cc(F)c4nc(N(C)[C@@H]5CCN[C@@H](C)C5)sc4c3)ccc2n1 [Compound 259, 4-fluoro-N-methyl-6-(2-methylimidazo[1,2-b]pyridazin-6-yl)-N-[(2S,4R)-2-methylpiperidin-4-yl]-1,3-benzothiazol-2-amine] | ≤ 100 nM
12 | Cc1cn2cc(-c3cc4sc(N(C)C5CC6CCCC(C5)N6)nc4cn3)ccc2n1 (centres unmarked) [Compound 260, N-(9-azabicyclo[3.3.1]non-3-yl)-N-methyl-6-(2-methylimidazo[1,2-a]pyridin-6-yl)[1,3]thiazolo[4,5-c]pyridin-2-amine] | ≤ 100 nM
13 | Cc1cn2cc(-c3cc4sc(N(C)C5CC6CCCC(C5)N6)nc4cn3)cc(C)c2n1 (centres unmarked) [Compound 261, N-(9-azabicyclo[3.3.1]non-3-yl)-6-(2,8-dimethylimidazo[1,2-a]pyridin-6-yl)-N-methyl[1,3]thiazolo[4,5-c]pyridin-2-amine] | ≤ 100 nM
14 | CN(c1nc2cnc(-c3ccc4nn(C)cc4c3)cc2s1)C1CC2CCCC(C1)N2 (centres unmarked) [Compound 262, N-(9-azabicyclo[3.3.1]non-3-yl)-N-methyl-6-(2-methyl-2H-indazol-5-yl)[1,3]thiazolo[4,5-c]pyridin-2-amine] | ≤ 100 nM
15 | Cc1cc(-c2cc3sc(N(C)C4CC5CCCC(C4)N5)nc3cn2)cc2cn(C)nc12 (centres unmarked) [Compound 263, N-(9-azabicyclo[3.3.1]non-3-yl)-6-(2,7-dimethyl-2H-indazol-5-yl)-N-methyl[1,3]thiazolo[4,5-c]pyridin-2-amine] | ≤ 100 nM
16 | COc1cc(-c2cc3sc(N(C)C4CC5CCCC(C4)N5)nc3cn2)cc2cn(C)nc12 (centres unmarked) [Compound 264, N-(9-azabicyclo[3.3.1]non-3-yl)-6-(7-methoxy-2-methyl-2H-indazol-5-yl)-N-methyl[1,3]thiazolo[4,5-c]pyridin-2-amine] | ≤ 100 nM
17 | Cc1cn2cc(-c3ncc4nc(N(C)C5CC(C)(C)NC(C)(C)C5)sc4n3)cc2c(C)n1 [Compound 265, 5-(1,3-dimethylpyrrolo[1,2-a]pyrazin-7-yl)-N-methyl-N-(2,2,6,6-tetramethylpiperidin-4-yl)[1,3]thiazolo[5,4-d]pyrimidin-2-amine] | ≤ 100 nM
18 | Cc1cn2cc(-c3cc4sc(NC5CC(C)(C)N(C)C(C)(C)C5)nc4cn3)cc(C#N)c2n1 [Compound 266, 2-methyl-6-{2-[(1,2,2,6,6-pentamethylpiperidin-4-yl)amino][1,3]thiazolo[4,5-c]pyridin-6-yl}imidazo[1,2-a]pyridine-8-carbonitrile] | 100 to 500 nM
19 | Cc1cn2cc(-c3cc4sc(NC5CC(C)(C)N(C)C(C)(C)C5)nc4cn3)cc(F)c2n1 [Compound 267, 6-(8-fluoro-2-methylimidazo[1,2-a]pyridin-6-yl)-N-(1,2,2,6,6-pentamethylpiperidin-4-yl)[1,3]thiazolo[4,5-c]pyridin-2-amine] | 100 to 500 nM
20 | CN1C(C)(C)CC(Nc2nc3cnc(-c4cc(C#N)c5nn(C)cc5c4)cc3s2)CC1(C)C [Compound 268, 2-methyl-5-{2-[(1,2,2,6,6-pentamethylpiperidin-4-yl)amino][1,3]thiazolo[4,5-c]pyridin-6-yl}-2H-indazole-7-carbonitrile] | 100 to 500 nM
21 | CN1C(C)(C)CC(Nc2nc3cnc(-c4cc(F)c5nn(C)cc5c4)cc3s2)CC1(C)C [Compound 269, 6-(7-fluoro-2-methyl-2H-indazol-5-yl)-N-(1,2,2,6,6-pentamethylpiperidin-4-yl)[1,3]thiazolo[4,5-c]pyridin-2-amine] | 100 to 500 nM
22 | Cc1cn2cc(-c3cc4sc(N(C)C5CC6CCCC(C5)N6C)nc4cn3)cc(C#N)c2n1 (centres unmarked) [Compound 270, 2-methyl-6-{2-[methyl(9-methyl-9-azabicyclo[3.3.1]non-3-yl)amino][1,3]thiazolo[4,5-c]pyridin-6-yl}imidazo[1,2-a]pyridine-8-carbonitrile] | ≤ 100 nM
23 | Cc1cn2cc(-c3cc4sc(N(C)C5CC6CCCC(C5)N6C)nc4cn3)cc(F)c2n1 (centres unmarked) [Compound 271, 6-(8-fluoro-2-methylimidazo[1,2-a]pyridin-6-yl)-N-methyl-N-(9-methyl-9-azabicyclo[3.3.1]non-3-yl)[1,3]thiazolo[4,5-c]pyridin-2-amine] | 100 to 500 nM
